In the NIST ThermoML archive (doi:10.1016/j.jct.2010.11.017):
± gives the expanded uncertainty stated by the source.

Test: wn = mass fraction of the nth substance listed
Conditions: 101 kPa, Liquid; for viscosity: Capillary tube (Ostwald / Ubbelohde) method; for speed of sound: Frequency=3 MHz, Linear variable-path acoustic interferometer; for mass density: Pycnometric method

O=C[C@H](O)[C@@H](O)[C@H](O)[C@H](O)CO [D-glucose] + O
Conditions | mass density [kg/m3] | speed of sound [m/s] | viscosity [mPa·s]
293.15 K, w1 = 0.05 | 1016.28 ± 6 | – | 1.176 ± 0.12
293.15 K, w1 = 0.1 | 1034.79 ± 6 | 1521.4 ± 10 | 1.357 ± 0.14
293.15 K, w1 = 0.15 | 1053.29 ± 6 | 1532.4 ± 10 | 1.541 ± 0.15
293.15 K, w1 = 0.2 | 1072.41 ± 6 | 1543.2 ± 10 | 1.877 ± 0.19
298.15 K, w1 = 0.05 | 1014.69 ± 6 | 1514.3 ± 10 | 0.9767 ± 0.098
298.15 K, w1 = 0.1 | 1033.15 ± 6 | 1530.6 ± 10 | 1.12 ± 0.11
298.15 K, w1 = 0.15 | 1051.61 ± 6 | 1542.5 ± 10 | 1.316 ± 0.13
298.15 K, w1 = 0.2 | 1070.31 ± 6 | 1553.3 ± 10 | 1.67 ± 0.17
303.15 K, w1 = 0.05 | 1013.08 ± 6 | 1525.1 ± 10 | 0.8605 ± 0.086
303.15 K, w1 = 0.1 | 1031.5 ± 6 | 1540.3 ± 10 | 0.9907 ± 0.099
303.15 K, w1 = 0.15 | 1049.92 ± 6 | 1551.5 ± 10 | 1.147 ± 0.12
303.15 K, w1 = 0.2 | 1068.17 ± 6 | 1563.1 ± 10 | 1.491 ± 0.15
308.15 K, w1 = 0.05 | 1011.47 ± 6 | 1535.7 ± 10 | 0.7697 ± 0.077
308.15 K, w1 = 0.1 | 1029.84 ± 6 | 1550.2 ± 10 | 0.8844 ± 0.089
308.15 K, w1 = 0.15 | 1048.37 ± 6 | 1560.5 ± 10 | 1.018 ± 0.1
308.15 K, w1 = 0.2 | 1065.97 ± 6 | 1573.5 ± 10 | 1.345 ± 0.13
313.15 K, w1 = 0.05 | 1009.85 ± 6 | 1545.6 ± 10 | 0.6945 ± 0.07
313.15 K, w1 = 0.1 | 1028.17 ± 6 | 1559.9 ± 10 | 0.7901 ± 0.079
313.15 K, w1 = 0.15 | 1046.62 ± 6 | 1569.6 ± 10 | 0.8925 ± 0.089
313.15 K, w1 = 0.2 | 1063.76 ± 6 | 1582.2 ± 10 | 1.21 ± 0.12
318.15 K, w1 = 0.05 | – | 1554.5 ± 10 | 0.6334 ± 0.064
318.15 K, w1 = 0.1 | 1026.48 ± 6 | 1568.4 ± 10 | 0.7223 ± 0.072
318.15 K, w1 = 0.15 | 1044.93 ± 6 | 1577.2 ± 10 | 0.8097 ± 0.081
318.15 K, w1 = 0.2 | 1061.52 ± 6 | 1591.2 ± 10 | 1.112 ± 0.11
